Test results as given in paper PMC6721120, “Inhibitory Effects of Ginsenoside Ro on the Growth of B16F10 Melanoma via Its Metabolites” (Molecules, 2019).
In brackets after ≈: the same amount, converted by molar mass.

What was measured:
[1] = system: B16F10 melanoma tumour; experiment: Tumour xenograft experiment in B16F10 tumour-bearing mice; assay type: in vivo, C57BL/6J mice; settings: 15 days; for tumour growth (tumour volume): R1 25, IVa 25, E 5, CTX 20 mg/kg intraperitoneal, vs model group, p < 0.05; for mean tumour weight: model group 1.50 g
Method: (§1) An anti-tumour assay was conducted in a mouse xenograft model. B16F10 cells were cultured in DMEM containing 10% FBS. After the collection of cells, the cells were re-suspended in normal saline to the appropriate concentrations. Next, 0.1 mL of the B16F10 cell suspension (1 × 10^6 cells) was subcutaneously injected via the right axillary region of the C57BL/6J mice. The tumour-bearing mice were randomly divided into three groups (n = 6/group): model control group, positive control group, and Ro (25 mg/kg) administration group. […] Normal and model mice were administered normal saline. The mice in the positive control group received CTX (20 mg/kg). The successive intraperitoneal injection of drugs into the mice from the day after tumour inoculation and the body weights were monitored every 2 days. After 15 days, all mice were sacrificed, and tumours were taken out and measured as previously described. The thymus and spleen were also removed and weighed to calculate the thymus and spleen indices. The tumour inhibition rate was calculated. The blood samples were collected from the retrobulbar vessels and added into tubes containing heparin. Subsequently, plasma samples were prepared by centrifugation for 10 min at 3800 rpm and stored at −80 °C for HPLC-MS analysis.
A xenograft experiment was performed using the same method as described in Section 2.2. Briefly, after the mice were inoculated with tumour cells, they were randomly divided into […] (n = 6/group): model control group, positive control group (CTX, 20 mg/kg), R1 (25 mg/kg), IVa (25 mg/kg), and E (5 mg/kg) administration groups. […] Normal and model mice were administered normal saline. Drugs were intraperitoneally injected into the mice for 15 consecutive days. Tumour volumes were measured every 2 days, and tumour growth curves were plotted. At the end of the experiment, the mice were sacrificed, and the tumour weight and tumour growth inhibition rates were calculated.

[2] = CTX 20 mg/kg, Ro 25 mg/kg
Method: as §1

[3] = system: B16F10 melanoma cells; experiment: MTT cell viability assay; assay type: cell-based; settings: 24 h; for IC50: Mus musculus, B16-F10, MTT, read-out: half maximal inhibitory concentration (IC50)
Method: In this study, Ro was dissolved in dimethyl sulfoxide (DMSO) and diluted in DMEM and then filtered using a 0.22 μm membrane. The final concentration of DMSO in cell culture medium was 0.1%, and 0.1% DMSO-treated cells were used as controls. The effect of Ro on B16F10 cell growth in vitro was performed using the MTT assay. Briefly, exponentially growing B16F10 (1 × 10^4 cells/well) cells were seeded onto 96-well plates and incubated for 24 h in complete medium. After 24 h incubation, the cells were treated with various concentrations of Ro (0, 1, 3, 10, 30, 100 μg/mL) for 24 h, and MTT (0.5%, 20 μL) was then added to each well and incubated for an additional 4 h at 37 °C. The formazan crystals were dissolved in DMSO (150 μL), and the absorbance at 490 nm was measured using a microplate reader (BioTek Epoch; BioTek, Winooski, VT, USA)
The metabolites (standard substance) of Ro were dissolved in the same manner as Ro. Briefly, IVa, R1, and E were dissolved in dimethyl sulfoxide (DMSO), diluted in DMEM, and then filtered using a 0.22 μm membrane. The final concentration of DMSO in cell culture medium was 0.1%, and 0.1% DMSO-treated cells were used as controls. The effects of IVa, R1, and E on B16F10 cell growth were evaluated using the MTT assay as previously described. The cells were treated with various concentrations of IVa (0, 1, 3, 10, 30, 100 μg/mL), R1 (0, 5, 10, 20, 30, 40 μg/mL), and E (0, 2, 4, 6 μg/mL) for 24 h. After incubation, MTT (0.5%, 20 μL) was added and incubated for 4 h at 37 °C. Then the supernatants were carefully removed, and 150 μL DMSO was added to each well. After 10 min of incubation and vibration, the absorbance was read at a wavelength of 490 nm. IC50 values were calculated using Probit Analysis with SPSS 22.0 (SPSS Inc., Chicago, IL, USA).

[4] = system: human umbilical vein endothelial cells (HUVECs); experiment: Tube formation assay on Matrigel; assay type: cell-based; settings: 5 h incubation; IVa 1–100, R1 5–40, E 2–10 μg/mL
Method: The tube formation assay was performed as previously described with some modifications. Matrigel (BD Biosciences, San Jose, CA, USA) was thawed overnight at 4 °C. Next, 50 μL Matrigel was coated on each well of the pre-chilled 96-well plates and then incubated at 37 °C for 1 h. HUVECs (5 × 10^4 cells/well) were seeded on the Matrigel and treated with various concentrations of Ro (0, 1, 3, 10, 30, 100 μg/mL), R1 (0, 5, 10, 20, 30, 40 μg/mL), IVa (0, 1, 3, 10, 30, 100 μg/mL), and E (0, 2, 4, 6, 8, 10 μg/mL). After incubation for 5 h, the formation of HUVEC tubular structures was captured using a microscope (Nikon eclipse Ti; Nikon, Tokyo, Japan). The tube length was quantified using Image-Pro Plus 6.0 software.

[5] = HPLC-MS determination of Ro metabolites in plasma of tumour-bearing mice; assay type: in vivo, C57BL/6J mice; settings: plasma after 15 days Ro 25 mg/kg intraperitoneal; for detection in plasma of Ro-treated tumour-bearing mice: HPLC-MS
Method: B16F10 cells were cultured in DMEM containing 10% FBS. […] Normal and model mice were administered normal saline. […] The tumour inhibition rate was calculated.
Identification of the metabolites of Ro was done using the same HPLC Trap MS system as previously described. Briefly, an aliquot of 60 μL plasma samples was removed from the −80 °C storage and thawed under ambient temperature and mixed vigorously with 300 μL cold methanol. The supernatant was placed in a centrifuge tube (1500 μL) after 10 min of centrifugation at 10,000 rpm. The precipitate was washed three times using 100 μL cold methanol. All of the supernatants were combined and dried under nitrogen flow at ambient temperature. The residue was dissolved using 80 μL methanol (3 min of vortexing), and the solution was diluted in 240 μL pure water. The mixture was centrifuged at 10,000 rpm for 10 min. All of the supernatant was loaded onto a flash column (25 × 2 mm id, Chromolith; Merck, Darmstadt, Germany). This flash column was connected to an analytical column (50 × 2 mm id, Chromolith; Merck) for HPLC-MS analysis. The separation was conducted using a gradient mobile phase consisting of water (A, containing 0.01% ammonium hydroxide) and acetonitrile (B). The program of the mobile phase was as follows: 10% B for the first 5 min; then a linear gradient of 10–15% B for 5–7 min, 15–40% B for 7–40 min, and 40–70% B for 40–45 min; this composition was maintained for 45–60 min and then returned to the initial condition for 5 min. The flow rate was 0.2 mL/min. The method for the Trap MS detection was the same as previously described.

For `O=P1(N(CCCl)CCCl)NCCCO1` (stereo not drawn) [CTX, cyclophosphamide, reference compound], the “tumour growth (tumour volume)” value [1] was “significantly suppressed tumour growth”, the “Organ Indices Spleen” value ([2]; after 15 days intraperitoneal) was 2.98 ± 0.86 ×100, mg/g and the “Organ Indices Thymus” value ([2]; after 15 days intraperitoneal) was 0.56 ± 0.09 ×100, mg/g. The “Weight (g) After” value ([2]; body weight after 15 days intraperitoneal) was 22.27 ± 1.02 g and the “Weight (g) Before” value ([2]; body weight before treatment) was 22.29 ± 0.85 g.
In the case of `CC1(C)CC[C@]2(C(=O)O)CC[C@]3(C)C(=CC[C@@H]4[C@@]5(C)CC[C@H](O[C@@H]6O[C@H](C(=O)O)[C@@H](O)[C@H](O)[C@H]6O)C(C)(C)[C@@H]5CC[C@]43C)[C@@H]2C1` [E, calenduloside E], the tumour inhibition rate ([1]; 5 mg/kg intraperitoneal) is reported as 85.4%, the mean tumour weight ([1]; 5 mg/kg intraperitoneal) is reported as 0.22 g and the “tumour growth (tumour volume)” value [1] is reported as “significantly suppressed tumour growth”. The IC50 [3] was 2.58 µg/mL (≈ 4.08 µM) and the HUVEC tube formation [4] was “markedly inhibited”.
For `CC1(C)CC[C@]2(C(=O)O[C@@H]3O[C@H](CO)[C@@H](O)[C@H](O)[C@H]3O)CC[C@]3(C)C(=CC[C@@H]4[C@@]5(C)CC[C@H](O[C@@H]6O[C@H](C(=O)O)[C@@H](O)[C@H](O)[C@H]6O)C(C)(C)[C@@H]5CC[C@]43C)[C@@H]2C1` [IVa, chikusetsusaponin IVa], the tumour inhibition rate ([1]; 25 mg/kg intraperitoneal) was 64.7%, the mean tumour weight ([1]; 25 mg/kg intraperitoneal) was 0.53 g and the “tumour growth (tumour volume)” value [1] was “significantly suppressed tumour growth”. The viability ([3]; 100 µg/mL) was “slightly decreased”, the cytotoxic effects ([3]; 1–30 µg/mL) was “no cytotoxic effects” and the HUVEC tube formation [4] was “markedly inhibited”.
In the case of `CC1(C)CC[C@]2(C(=O)O)CC[C@]3(C)C(=CC[C@@H]4[C@@]5(C)CC[C@H](O)C(C)(C)[C@@H]5CC[C@]43C)[C@@H]2C1` [OA, oleanolic acid, reference compound], the “detection in plasma of Ro-treated tumour-bearing mice” value (“detection in plasma” for short) [5] is reported as “not detected”.
With `CC1(C)CC[C@]2(C(=O)O)CC[C@]3(C)C(=CC[C@@H]4[C@@]5(C)CC[C@H](O[C@@H]6O[C@H](C(=O)O)[C@@H](O)[C@H](O)[C@H]6O[C@@H]6O[C@H](CO)[C@@H](O)[C@H](O)[C@H]6O)C(C)(C)[C@@H]5CC[C@]43C)[C@@H]2C1` [R1, zingibroside R1] the tumour inhibition rate ([1]; 25 mg/kg intraperitoneal) was 46.6%, the mean tumour weight ([1]; 25 mg/kg intraperitoneal) was 0.80 g and the “tumour growth (tumour volume)” value [1] was “significantly suppressed tumour growth”. For the same compound, the IC50 [3] was 24.5 µg/mL (≈ 30.8 µM), the “plasma signal intensity of R1 relative to E” value [5] was ~100 fold and the “plasma signal intensity of R1 relative to IVa” value [5] was ~10 fold. The “plasma signal intensity of R1 relative to Ro” value [5] was “approximately two-fold”, the “detection in plasma” value [5] was “most abundant metabolite in the plasma” and the HUVEC tube formation [4] was “markedly inhibited”.
With Glycosyl oleanolate the “detection in plasma” value [5] was “not detected”.
